What was measured:
[1] = system: ovariectomized rats; assay: Vaginal cornification bioassay in ovariectomized rats, 7 days, sc or po; format: in vivo, rat
Excerpt: Uterine weight increase in the rat is more commonly used as a measure of estrogenicity. […] In the early 1920s it was discovered that follicular fluid from the pig ovary contained a factor(s) that caused cornification/keratinization of the vaginal epithelium in the rat (Allen and Doisy, 1923, JAMA, 81, 819-821; Allen and Doisy, 1924, Am. J. Physiol., 69, 577-588). The so-called vaginal cornification response in rats subsequently provided a bioassay for testing estrogenicity. Vaginal epithelial cornification/keratinization in ovariectomized rats can be produced only by compounds considered to be true estrogens (Jones et al, 1973, Fert. Steril. 24, 284-291). […] Adult intact female CD rats were ovariectomized to induce estrogen deficiency. […] Castrate vaginal smears are indicative that complete ovariectomy was achieved. Treatment commenced following completion of the 7 days of smearing (day 0=first day of dosing). Animals were dosed, once daily for 7 consecutive days. Daily vaginal lavages continued to be obtained for 7 days after dosing was initiated in order to detect vaginal cornification, as an indication of an estrogenic response. A drop of vaginal washings was placed on a glass slide and examined by light microscopy to detect the presence or absence of cornified epithelial cells. Vaginal lavages were obtained prior to dosing on days 0-6 and prior to necropsy on day 7. […]

[2] = system: human breast cancer cells (MCF-7); details: cited from earlier work
[3] = system: morphine-dependent ovariectomized (OVX) rat; assay: Morphine-dependent OVX rat hot flush model, naloxone-induced tail skin temperature rise; format: in vivo
Experimental: The morphine-dependent ovariectomized (OVX) rat was used as a model for postmenopausal hot flush. The potency of estetrol (E4) to prevent tail skin temperature rises, normally accompanied by a drop in core body temp arature, after naloxone-induced opiate withdrawel was tested. 17α-ethinyl-estradiol (EE) and vehicle. (hydroxy propyl-beta-cyclodextrin 20% wt/vol) served as controls in this bioassay.
The morphine-dependent ovariectomized (OVX) rat model has been proposed by several investigators (Katovich et al, 1986, Maturitas, 67-76; Merchenthaler et al. 1998, Maturitas, 307-316) as an animal model for the hot flush. During opiate withdrawal with the morphine antagonist naloxone, tail skin temperature (TST) rises and this rise is accompanied by a drop in core body temperature. In addition, the temperature changes are accompanied by surges in LH and a transient tachycardia. These events are similar in magnitude and temporal nature to those observed in the menopausal hot flush.
Three days prior to the commencement of dosing, animals were anesthetized using a ketamine/xylazine anesthetic mixture and underwent a bilateral ovariectomy. […]
For the hot flush manipulations the animals were placed in a test cage. […] The tail-skin temperature was recorded until it was stable and the animals were then injected with naloxone HCl (1 mg/kg). […]

[4] = target: T1, human sex Hormone Binding Globulin (SHBG) (Homo sapiens, UniProt P04278); assay: Competitive steroid-binding assay, SHBG; details: [3H]DHT or [3H]estradiol as labeled ligands (FIG. 6)
T1 construct: Human SHBG was purified from transgenic mouse serum, as described previously; from tissue; host or cells: serum of mice transgenic for human SHBG
T1 sequence (P04278 30-402): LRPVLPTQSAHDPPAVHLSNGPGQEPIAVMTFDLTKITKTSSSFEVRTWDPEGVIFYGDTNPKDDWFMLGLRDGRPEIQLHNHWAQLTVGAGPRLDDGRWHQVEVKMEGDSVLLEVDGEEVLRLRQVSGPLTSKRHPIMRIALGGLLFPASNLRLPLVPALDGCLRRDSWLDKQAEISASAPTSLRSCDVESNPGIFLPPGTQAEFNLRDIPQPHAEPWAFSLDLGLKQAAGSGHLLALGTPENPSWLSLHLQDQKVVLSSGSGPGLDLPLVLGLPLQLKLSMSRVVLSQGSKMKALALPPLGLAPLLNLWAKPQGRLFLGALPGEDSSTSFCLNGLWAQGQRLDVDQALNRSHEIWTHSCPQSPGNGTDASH
Experimental: Human SHBG was treated for 30 min at room temperature with a dextran-coated charcoal (DCC) suspension in phosphate buffered saline (PBS) to remove any steroid ligand. After centrifugation (2,000×g for 10 min) to sediment the DCC, the supernatant containing the human SHBG was diluted in PBS to a concentration of 1 nM based on its steroid binding capacity.
After incubation for 1 h at room temperature the. reaction mixtures were placed in an ice bath for a further 15 muin. […] The average amounts of [^3H]labeled ligands bound to SHBG at each concentration of competitor (B) were expressed as a percentage of the average amounts of [^3H]labeled ligands bound to SHBG in the absence of competitor (B0), and were plotted against the concentration of competitor in each assay tube.

[5] = system: estrogen receptors in the human endometrium; details: cited from earlier work

relative binding affinity for human SHBG [4]: does not bind at all
SMILES: C[C@]12CC[C@@H]3c4ccc(O)cc4CC[C@H]3[C@@H]1[C@@H](O)[C@@H](O)[C@@H]2O [E4, 1,3,5 (10)-estratrien-3,15α,16α,17β-tetrol]
Number of Rats Exhibiting Estrogenic Response/Number of Rats Treated ([1]; 1.0 mg/kg/day, Day 7, 1 mg/kg/day): all rats | Number of Rats Exhibiting Estrogenic Response/Number of Rats Treated ([1]; 3.0 mg/kg/day, Day 7, 3 mg/kg/day): all rats | agonistic potency in in vitro cell proliferation, relative to 17β-estradiol [2]: 2% | suppressive response on TST compared with EE ([3]; po, 3.0 mg/kg/day (FIG. 3)): suppressive response similar to the potent oral estrogen, 17α-ethinyl estradiol (EE) | effect on naloxone-induced tail skin temperature (TST) ([3]; po, 0.3, 1.0 and 3.0 mg/kg/day (FIG. 3)): attenuated the TST | relative binding constant to the estrogen receptor compared to 17β-estradiol (100%) ([5]; Tseng et al. 1976): 6.25% | Relative binding to estrogen receptors, relative to 17β-estradiol ([5]; Tseng et al. 1978): 1.5%

— patent publication US8048869B2, “Pharmaceutical composition for use in hormone replacement therapy” (Pantarhei Bioscience B.V., priority 2001, dated 2011)
